Test results from ChEMBL document CHEMBL1145233, “Design, synthesis and evaluation of 5-substituted amino-2,4-diamino-8-chloropyrimido-[4,5-b]quinolines as novel antimalarials” (2005).

What was measured:
Format in all cases: functional
Mus musculus [1] = experiment: In vivo antimalarial activity of compound against Plasmodium berghei in mice (Mus musculus) expressed as mean survival time at 40 mg/kg
Mus musculus [2] = experiment: In vivo antimalarial activity of compound against Plasmodium berghei in mice (Mus musculus) expressed as mean survival time at 80 mg/kg
Mus musculus [3] = experiment: In vivo antimalarial activity of compound against Plasmodium berghei in mice (Mus musculus) expressed as mean survival time at 20 mg/kg
Mus musculus [4] = experiment: In vivo antimalarial activity of compound against Plasmodium berghei in mice (Mus musculus) expressed as mean survival time at 160 mg/kg

Row | SMILES | Survival time (Mus musculus [1]) | Survival time (Mus musculus [2]) | Survival time (Mus musculus [3]) | Survival time (Mus musculus [4])
1 | Nc1nc(N)c2c(Nc3ccc(O)c(CN4CCCC4)c3)c3ccc(Cl)cc3nc2n1 | 20 days | 25 days | 15 days | 26 days
2 | Nc1nc(N)c2c(Nc3ccc(S(N)(=O)=O)cc3)c3ccc(Cl)cc3nc2n1 | 13 days | 15 days | 12 days | 14 days
3 | CCN(COOC(C)(C)C)c1c2ccc(Cl)cc2nc2nc(N)nc(N)c12 | 12 days | 14 days | 13 days | 15 days
4 | COc1ncnc(NS(=O)(=O)c2ccc(Nc3c4ccc(Cl)cc4nc4nc(N)nc(N)c34)cc2)c1OC | >60 days | >60 days | >60 days | >60 days
5 | CCN(CC)c1cc(Nc2c3ccc(Cl)cc3nc3nc(N)nc(N)c23)ccc1O | 13 days | 15 days | 12 days | 14 days
6 | CCN(CC)CCCC(C)Nc1ccnc2cc(Cl)ccc12 (stereo unspecified) [CHLOROQUINE] | – | – | 15 days | –
7 | Nc1nc(N)c2c(Nc3ccc(S(=O)(=O)Nc4ccccn4)cc3)c3ccc(Cl)cc3nc2n1 | 14 days | 15 days | 11 days | 13 days
8 | Nc1nc(N)c2c(Nc3cc(CN4CCCC4)c(O)c(CN4CCCC4)c3)c3ccc(Cl)cc3nc2n1 | >60 days | >60 days | >60 days | >60 days
9 | CN(COOC(C)(C)C)c1c2ccc(Cl)cc2nc2nc(N)nc(N)c12 | 30 days | 20 days | 28 days | 14 days
10 | CCN(CC)c1cc(Nc2c3ccc(Cl)cc3nc3nc(N)nc(N)c23)cc(N(CC)CC)c1O | >60 days | >60 days | >60 days | >60 days
11 | Nc1nc(N)c2c(N)c3ccc(Cl)cc3nc2n1 | 16 days | 18 days | 15 days | 20 days
